# How the values were obtained:
# cocklebur = assay: Test C pre-/postemergence herbicide test; type: in vivo, Xanthium strumarium
# Description: (§1) Seeds of plant species selected from bermudagrass (Cynodon dactylon (L.) Pers.), Surinam grass (Urochloa decumbens (Staph) R. D. Webster, previously named Brachiaria decumbens Stapf), cocklebur (Xanthium strumarium L.), corn (Zea mays L.), large crabgrass (Digitaria sanguinalis (L.) Scop.), woolly cupgrass (Eriochloa villosa (Thunb.) Kunth), giant foxtail (Setaria faberi Herrm.), goosegrass (Eleusine indica (L.) Gaertn.), johnsongrass (Sorghum halepense (L.) Pers.), kochia (Kochia scoparia (L.) Schrad.), lambsquarters (Chenopodium album L.), morningglory (Ipomoea coccinea L.), eastern black nightshade (Solanum ptycanthum Dunal), yellow nutsedge (Cyperus esculentus L.), pigweed (Amaranthus retroflexus L.), common ragweed (Ambrosia elatior L.), soybean (Glycine max (L.) Merr.), common (oilseed) sunflower (Helianthus annuus L.) and velvetleaf (Abutilon theophrasti Medik.) were planted and treated preemergence with test chemicals formulated in a non-phytotoxic solvent mixture which included a surfactant.
# (§2) At the same time, plants selected from these crop and weed species and also winter barley (Hordeum vulgare L.), blackgrass (Alopecurus myosuroides Huds.), canarygrass (Phalaris minor Retz.), chickweed (Stellaria media (L.) Vill.), downy bromegrass (Bromus tectorum L.), green foxtail (Setaria viridis (L.) Beauv.), Italian ryegrass (Lolium multiflorum Lam.), wheat (Triticum aestivum L.), wild oat (Avenafatua L.) and windgrass (Apera spica-venti (L.) Beauv.) were treated with postemergence applications of some of the test chemicals formulated in the same manner. Plants ranged in height from 2 to 18 cm (1- to 4-leaf stage) for postemergence treatments. Plant species in the flooded paddy test consisted of rice (Oryza sativa), smallflower umbrella sedge (Cyperus difformis L.), ducksalad (Heteranthera limosa (Sw.) Willd.) and barnyardgrass (Echinochloa crus-galli (L.) Beauv.) grown to the 2-leaf stage for testing. Treated plants and controls were maintained in a greenhouse for 12 to 14 days, after which time all species were compared to controls and visually evaluated. Plant response ratings, summarized in Table C, are based on a scale of 0 to 100 where 0 is no effect and 100 is complete control. A dash (-) response means no test result.
# lambsquarters = assay: Test C pre-/postemergence herbicide test; type: in vivo, Chenopodium album
# Description: as §1, §2
# large crabgrass = assay: Test C pre-/postemergence herbicide test; type: in vivo, Digitaria sanguinalis; conditions: for Plant response rating (0 = no effect, 100 = complete control), Crabgrass, Large: 125 g ai/ha
# Description: as §1, §2
# common ragweed = assay: Test C pre-/postemergence herbicide test; type: in vivo, Ambrosia elatior; design: key to Plant response rating, Ragweed: 0 = no effect, 100 = complete control
# Description: as §1, §2
# corn = assay: Test C pre-/postemergence herbicide test; type: in vivo, Zea mays
# Description: as §1, §2
# barnyardgrass [1] = assay: Test A pre-/postemergence herbicide test; type: in vivo, Echinochloa crus-galli
# Procedure, shortened: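 Sandy loam soil given preemergence directed spray; plants at 2 to 10 cm, one- to two-leaf stage, sprayed to runoff postemergence, compounds in non-phytotoxic solvent with surfactant. Injury rated visually versus untreated controls after about ten greenhouse days, 0 (no effect) to 100 (complete control); dash means not tested.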
# pigweed = assay: Test C pre-/postemergence herbicide test; type: in vivo, Amaranthus retroflexus
# Description: as §1, §2
# velvetleaf = assay: Test C pre-/postemergence herbicide test; type: in vivo, Abutilon theophrasti
# Description: as §1, §2
# [2] = system: smallflower umbrella sedge; assay: Test C flooded paddy test; type: in vivo, Cyperus difformis; conditions: for Plant response rating, Sedge, Umbrella: 500 g ai/ha, visual rating after 12 to 14 days
# ducksalad = assay: Test C flooded paddy test; type: in vivo, Heteranthera limosa; conditions: for Plant response rating, Ducksalad: 500 g ai/ha, visual rating after 12 to 14 days
# barnyardgrass [3] = assay: Test C flooded paddy test; type: in vivo, Echinochloa crus-galli; conditions: for Plant response rating, Barnyardgrass: 500 g ai/ha, visual rating after 12 to 14 days
# Procedure, shortened: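 Postemergence sprays were applied to plants 2 to 18 cm tall (1- to 4-leaf stage); in the flooded paddy test, barnyardgrass was grown to the 2-leaf stage. After 12 to 14 days in a greenhouse, injury was visually rated against untreated controls on a 0–100 scale (100 = complete control).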
# [4] = Postemergence, 500 g ai/ha, scale 0 to 100
# [5] = Postemergence, 250 g ai/ha, scale 0 to 100, 0 no effect, 100 complete control
# [6] = postemergence, 125 g ai/ha, scale 0 to 100
# [7] = postemergence, 62 g ai/ha, scale 0 to 100
# [8] = 125 g ai/ha, scale 0 to 100 (0 no effect, 100 complete control)
# [9] = 250 g ai/ha, scale of 0 to 100, 0 is no effect, 100 is complete control
# [10] = scale 0 to 100 (0 no effect, 100 complete control)
# [11] = 62 g ai/ha, preemergence, scale 0 to 100
# [12] = 250 g ai/ha, scale 0-100, preemergence
# [13] = 62 g ai/ha, scale 0 to 100 (0 no effect, 100 complete control)
# [14] = 500 g ai/ha, scale 0 to 100 (0 no effect, 100 complete control), visual, 12 to 14 days, preemergence
structure (smiles),measurement,setting,value
CCCCOC(=O)c1cccc(NC(=O)c2cc(C(C)(C)C)nn2CC)c1 [Compound 86],Cocklebur plant response rating,cocklebur; [4],100
same,"Plant response rating, Cocklebur",cocklebur; [5],100
same,"Plant response rating, Cocklebur",cocklebur; [6],95
same,"Plant response rating, Cocklebur",cocklebur; [7],85
same,Lambsquarters plant response rating,lambsquarters; [4],100
same,"Plant response rating, Lambsquarters",lambsquarters; [5],100
same,"Plant response rating, Lambsquarters",lambsquarters; [6],100
same,"Plant response rating, Lambsquarters",lambsquarters; [7],100
same,"Crabgrass, Large plant response rating",large crabgrass; [4],40
same,"Plant response rating, Crabgrass, Large",large crabgrass; [5],10
same,"Plant response rating, Crabgrass, Large",large crabgrass; [7],10
same,Ragweed plant response rating,common ragweed; [4],70
same,"Plant response rating, Ragweed",common ragweed; [5],70
same,"Plant response rating, Ragweed",common ragweed; [6],65
same,"Plant response rating, Ragweed",common ragweed; [7],10
same,Corn plant response rating,corn; [4],30
same,"Plant response rating, Corn",corn; [5],20
same,"Plant response rating, Corn",corn; [6],20
same,"Plant response rating, Corn",corn; [7],15
same,Barnyardgrass plant response rating,"barnyardgrass [1]; Postemergence, 500 g ai/ha, 0 to 100 scale, 0 no effect, 100 complete control",20
same,"Plant response rating, Barnyardgrass","barnyardgrass [1]; Postemergence, 2000 g ai/ha, 0 to 100 scale, 0 no effect, 100 complete control",20
same,Barnyardgrass plant response rating,"barnyardgrass [1]; Preemergence, 500 g ai/ha, visual rating, 0 to 100 scale (0 no effect, 100 complete control)",0
same,Barnyardgrass plant response rating,"barnyardgrass [1]; Preemergence, 2000 g ai/ha, 0 to 100 scale, 0 no effect, 100 complete control",0
same,Pigweed plant response rating,pigweed; [4],100
same,"Plant response rating, Pigweed",pigweed; [5],100
same,"Plant response rating, Pigweed",pigweed; [6],100
same,"Plant response rating, Pigweed",pigweed; [7],100
same,Velvetleaf plant response rating,velvetleaf; [4],85
same,"Plant response rating, Velvetleaf",velvetleaf; [5],80
same,"Plant response rating, Velvetleaf",velvetleaf; [6],60
same,"Plant response rating, Velvetleaf",velvetleaf; [7],40
CCc1nn(C(C)(C)C)nc1C(=O)Nc1cccc(C(=O)N(C)CC)c1 [Compound 384],"Sedge, Umbrella plant response rating","[2]; 62 g ai/ha, scale 0 to 100",80
same,"Sedge, Umbrella plant response rating",[2]; [8],80
same,"Sedge, Umbrella plant response rating",[2]; [9],80
same,"Plant response rating, Sedge, Umbrella",[2]; [10],80
same,"Plant response rating, Lambsquarters",lambsquarters; [11],100
same,"Plant response rating (0 = no effect, 100 = complete control), Lambsquarters","lambsquarters; 125 g ai/ha, preemergence",100
same,"Plant response rating, Lambsquarters",lambsquarters; [12],100
same,"Plant response rating, Crabgrass, Large",large crabgrass; [11],100
same,"Plant response rating (0 = no effect, 100 = complete control), Crabgrass, Large",large crabgrass; preemergence,100
same,"Plant response rating, Crabgrass, Large",large crabgrass; [12],100
same,Ducksalad plant response rating,"ducksalad; 62 g ai/ha, scale 0 to 100",80
same,Ducksalad plant response rating,ducksalad; [8],80
same,Ducksalad plant response rating,ducksalad; [9],80
same,"Plant response rating, Ducksalad",ducksalad; [10],85
same,"Plant response rating, Ragweed",common ragweed; [11],100
same,"Plant response rating (0 = no effect, 100 = complete control), Ragweed","common ragweed; 125 g ai/ha, preemergence",100
same,"Plant response rating, Ragweed",common ragweed; [12],100
same,Barnyardgrass plant response rating,barnyardgrass [3]; [13],65
same,Barnyardgrass plant response rating,barnyardgrass [3]; [8],75
same,Barnyardgrass plant response rating,barnyardgrass [3]; [9],90
same,"Plant response rating, Barnyardgrass",barnyardgrass [3]; [10],95
same,"Plant response rating, Pigweed",pigweed; [11],100
same,"Plant response rating (0 = no effect, 100 = complete control), Pigweed","pigweed; 125 g ai/ha, preemergence",100
same,"Plant response rating, Pigweed",pigweed; [12],100
same,"Plant response rating, Velvetleaf",velvetleaf; [11],100
same,"Plant response rating (0 = no effect, 100 = complete control), Velvetleaf","velvetleaf; 125 g ai/ha, preemergence",100
same,"Plant response rating, Velvetleaf",velvetleaf; [12],100
Cc1nn(C(C)(C)C)nc1C(=O)Nc1cccc(C(=O)N2CC=CC2)c1 [Compound 393],"Plant response rating, Cocklebur",cocklebur; [11],0
same,"Plant response rating (0 = no effect, 100 = complete control), Cocklebur","cocklebur; 125 g ai/ha, preemergence",100
same,"Plant response rating, Cocklebur",cocklebur; [12],100
same,"Plant response rating, Cocklebur",cocklebur; [14],100
same,"Sedge, Umbrella plant response rating","[2]; 62 g ai/ha, scale 0 to 100",70
same,"Sedge, Umbrella plant response rating",[2]; [8],75
same,"Sedge, Umbrella plant response rating",[2]; [9],80
same,"Plant response rating, Sedge, Umbrella",[2]; [10],85
same,"Plant response rating, Lambsquarters",lambsquarters; [11],100
same,"Plant response rating (0 = no effect, 100 = complete control), Lambsquarters","lambsquarters; 125 g ai/ha, preemergence",100
same,"Plant response rating, Lambsquarters",lambsquarters; [12],100
same,"Plant response rating, Lambsquarters",lambsquarters; [14],100
same,"Plant response rating, Crabgrass, Large",large crabgrass; [11],95
same,"Plant response rating (0 = no effect, 100 = complete control), Crabgrass, Large",large crabgrass; preemergence,100
same,"Plant response rating, Crabgrass, Large",large crabgrass; [12],100
same,"Plant response rating, Crabgrass, Large",large crabgrass; [14],100
same,Ducksalad plant response rating,"ducksalad; 62 g ai/ha, scale 0 to 100",75
same,Ducksalad plant response rating,ducksalad; [8],75
same,Ducksalad plant response rating,ducksalad; [9],80
same,"Plant response rating, Ducksalad",ducksalad; [10],90
same,"Plant response rating, Ragweed",common ragweed; [11],20
same,"Plant response rating (0 = no effect, 100 = complete control), Ragweed","common ragweed; 125 g ai/ha, preemergence",100
same,"Plant response rating, Ragweed",common ragweed; [12],100
same,"Plant response rating, Ragweed",common ragweed; [14],100
same,"Plant response rating, Corn",corn; [11],55
same,"Plant response rating, Corn",corn; [12],75
same,"Plant response rating, Corn",corn; [14],100
same,Barnyardgrass plant response rating,barnyardgrass [3]; [13],45
same,Barnyardgrass plant response rating,barnyardgrass [3]; [8],65
same,Barnyardgrass plant response rating,barnyardgrass [3]; [9],75
same,"Plant response rating, Barnyardgrass",barnyardgrass [3]; [10],95
same,"Plant response rating, Pigweed",pigweed; [11],90
same,"Plant response rating (0 = no effect, 100 = complete control), Pigweed","pigweed; 125 g ai/ha, preemergence",100
same,"Plant response rating, Pigweed",pigweed; [12],100
same,"Plant response rating, Pigweed",pigweed; [14],100
same,"Plant response rating, Velvetleaf",velvetleaf; [11],65
same,"Plant response rating (0 = no effect, 100 = complete control), Velvetleaf","velvetleaf; 125 g ai/ha, preemergence",100
same,"Plant response rating, Velvetleaf",velvetleaf; [12],100
same,"Plant response rating, Velvetleaf",velvetleaf; [14],100

# From patent US20060069132A1, “Azolecarboxamide herbicides” (priority 2004, published 2006)
